Reference: paper PMC4184574, “Enantioselectivity in the cytochrome P450-dependent conversion of tegafur to 5-fluorouracil in human liver microsomes” (Pharmacology Research & Perspectives, 2013)
“Also recorded” adds a separate entry of the source. Where a name gives a salt, the structure may show the parent alone.

Columns and labels:
Assay type in all cases: in vitro ADME
[1] = Effects of CYP-selective inhibitors on 5-FU formation from FT enantiomers in pooled human hepatic microsomes; details: pooled human hepatic microsomes; for effect on 5-FU formation from R-FT (in words): furafylline 25, quinidine 1, ketoconazole 1 μmol/L; for effect on 5-FU formation from S-FT (in words): furafylline 25, ticlopidine 20, quinidine 1, ketoconazole 1 μmol/L
Method: (§1) Metabolic reaction by S9 and cytosol (each 2 mg protein/mL) was carried out in 100 mmol/L phosphate (pH 7.4) because TPase requires phosphate ions for catalyzing the reaction. In some cases, insect microsomes expressing recombinant CYP isoforms (20 pmol/mL) were added to the incubation mixtures in either 50, 100 mmol/L phosphate (pH 7.4) or 100 mmol/L Tris (pH 7.4), depending on supplier's recommendation. Microsomal protein concentrations of all cDNA-expressed CYPs were adjusted to 0.5 mg protein/mL by adding control microsomes expressing NADPH-P450 oxidoreductase and cytochrome b5. The reaction for the assay of FT metabolism was initiated by adding the substrate, following preincubation for 5 min at 37°C. After incubation at 37°C, the reaction was stopped by adding three volumes of ice-cold acetonitrile. The incubation times of microsomes, cytosol, and S9 were 15, 15, and 30 min, respectively. After centrifugation, the supernatant was collected and stored at −80°C until the determination of 5-FU. Because a small portion of FT is nonenzymatically converted to 5-FU, the content of 5-FU spontaneously formed was subtracted from total yield obtained after incubation to correct the activity. The spontaneous degradation of FT to 5-FU was evaluated using enzymes inactivated by heating them at 100°C for 5 min.
(§2) The effects of inhibitors of CYP isoforms and TPase, and anti-CYP antibodies on 5-FU formation from FT enantiomers catalyzed by human hepatic preparations were evaluated. In inhibition assays, FT enantiomers were used at the concentrations of 30 μmol/L. 1-Aminobenzotriazole (1 mmol/L) and TPI (10 μmol/L) were used as nonselective inhibitors of CYP isoforms and TPase, respectively. […] Inhibitors were dissolved in methanol and diluted with 100 mmol/L phosphate (pH 7.4) or 100 mmol/L Tris (pH 7.4) so that the final concentration of solvent in the incubation mixture was 0.5%. Methanol was also added to the control at the same concentration as the conditions with inhibitors. Inhibitory effects of anti-CYP antibodies were examined by preincubating microsomes with the antibodies for 10 min on ice. Each polyclonal anti-CYP antibody was used at a concentration ranging 10–40 μL/mg microsomal protein according to the procedure recommended by the supplier. The reaction was performed similarly as described above, except for evaluating the inhibitory effect of furafylline.
(§3) Concentration of 5-FU was determined using a LC/MS/MS system. The analytical system consisted of a HP1100 liquid chromatograph (Agilent Technologies, CA) coupled with an API4000 triple-quadrupole mass spectrometer (Applied Biosystems, CA) equipped with Turbo V source and ESI interface. Sample separation was performed using an Unison UK-Amino column (2.0 mm i.d. × 100 mm, 3 μm; Imtakt, Kyoto, Japan) at a flow rate of 0.2 mL/min at 40°C. The mobile phase consisted of 10 mmol/L ammonium acetate/acetonitrile 10:90 (v/v). […] For quantification of 5-FU, the calibration curves were linear over the range 2–1000 ng/mL.
(§4) For evaluating the effect of furafylline, the preincubation of microsomes with an inhibitor and an NADPH-generating system for 20 min was performed, followed by the enantioselective metabolic reaction. Opened and closed bars represent 5-FU formation rate from R- and S-FT, respectively.

[2] = test system: CYP2A6 (tranylcypromine), CYP2E1 (diethyldithiocarbamate); CYP-mediated 5-FU formation from R-FT; experiment: as above; details: human, pooled human liver microsomes, pH 7.4, probe R-FT (R-tegafur) 30 μmol/L, 5-FU formation
Method: as §1, §2, §3, §4

[3] = test system: CYP2A6 (tranylcypromine), CYP2E1 (diethyldithiocarbamate); CYP-mediated 5-FU formation from S-FT; experiment: as above; details: human, pooled human liver microsomes, pH 7.4, probe S-FT (S-tegafur) 30 μmol/L, 5-FU formation
Method: as §1, §2, §3, §4

[4] = Enantioselective conversion of FT to 5-FU in human hepatic S9 with CYP and TPase inhibitors; details: FT enantiomer 0.1 mmol/L, 1-aminobenzotriazole 1 mmol/L, TPI 10 μmol/L
Method: Insect microsomes expressing only NADPH-P450 oxidoreductase and cytochrome b5 were also used as control. These enzymes were stored at −80°C until use.
as §1
as §2, with “In inhibition assays, FT enantiomers were used at the concentrations of 30 μmol/L.” left out
Concentration of 5-FU was determined using a LC/MS/MS system. […] For quantification of 5-FU, the calibration curves were linear over the range 2–1000 ng/mL. […]

Structure (SMILES) | effect on 5-FU formation from R-FT (in words) ([1]; R-FT 30 μmol/L) | effect on 5-FU formation from S-FT (in words) ([1]; S-FT 30 μmol/L) | effect on 5-FU formation from R-FT (in words) [4] | effect on 5-FU formation from S-FT (in words) [4] | other results
Cc1nc2c([nH]1)c(=O)n(C)c(=O)n2Cc1ccco1 [furafylline] | no effect | no effect |  |  | 
N[C@@H]1C[C@H]1c1ccccc1 (racemic) [tranylcypromine, tranylcypromine hydrochloride] |  |  |  |  | inhibition at 15 min ([2]; pooled human hepatic microsomes, R-FT 30 μmol/L, tranylcypromine 5 μmol/L, diethyldithiocarbamate 100 μmol/L): ~90%; inhibition at 15 min ([3]; pooled human hepatic microsomes, S-FT 30 μmol/L, tranylcypromine 5 μmol/L, diethyldithiocarbamate 100 μmol/L): ~90%
CC(=O)N1CCN(c2ccc(OCC3COC(Cn4ccnc4)(c4ccc(Cl)cc4Cl)O3)cc2)CC1 (centres unmarked) [ketoconazole] | no effect | no effect |  |  | 
CCN(CC)C(=S)S [diethyldithiocarbamate, sodium diethyldithiocarbamate] |  |  |  |  | amount of 5-FU formed from R-FT, % of the control value ([1]; R-FT 30 μmol/L, diethyldithiocarbamate 100 μmol/L): 73 % of the control value; amount of 5-FU formed from S-FT, % of the control value ([1]; S-FT 30 μmol/L, diethyldithiocarbamate 100 μmol/L): 64 % of the control value; inhibition at 15 min [2]: 27%; inhibition at 15 min [3]: 34%
Cl.N=C1CCCN1Cc1[nH]c(=O)[nH]c(=O)c1Cl [TPI, 5-chloro-6-(2-iminopyrrolidin-1-yl) methyl-2, 4 (1H,3H)-pyrimidinedione hydrochloride] |  |  | only a minor effect; also recorded: only a slight effect | only a minor effect; also recorded: not observed | 
Nn1nnc2ccccc21 [1-aminobenzotriazole, 1-Aminobenzotriazole] |  |  | markedly reduced; also recorded: strong inhibitory effect | markedly reduced; also recorded: strong inhibitory effect | 
